According to ChEMBL document CHEMBL3400104, “Discovery of a potent, orally available dual CysLT₁ and CysLT₂ antagonist with dicarboxylic acid” (Bioorg Med Chem, 2015):
pIC50: −log10 of the molar value.

How the values were obtained:
[1] = target: T1, Cysteinyl leukotriene receptor 1 (Homo sapiens, UniProt Q9Y271); experiment: Antagonist activity at human CysLT1 receptor expressed in CHO cells assessed as inhibition of LTD4-inudced intracellular calcium influx preincubated for 30 mins before LTD4 addition by Fura2-AM assay; assay type: functional, cell-based
T1 sequence (Q9Y271 whole entry): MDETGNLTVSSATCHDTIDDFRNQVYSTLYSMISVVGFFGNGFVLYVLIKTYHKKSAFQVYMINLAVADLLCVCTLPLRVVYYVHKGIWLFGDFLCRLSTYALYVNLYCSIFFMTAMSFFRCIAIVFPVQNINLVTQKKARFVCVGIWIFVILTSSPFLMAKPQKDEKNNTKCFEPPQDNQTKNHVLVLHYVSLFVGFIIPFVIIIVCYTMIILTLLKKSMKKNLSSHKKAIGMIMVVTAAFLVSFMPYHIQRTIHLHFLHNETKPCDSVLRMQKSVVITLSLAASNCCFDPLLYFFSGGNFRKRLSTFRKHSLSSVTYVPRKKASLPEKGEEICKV

[2] = target: T2, Cysteinyl leukotriene receptor 2 (Homo sapiens, UniProt Q9NS75); experiment: Antagonist activity at human CysLT2 receptor expressed in HEK293 cells assessed as inhibition of LTD4-inudced intracellular calcium influx preincubated for 30 mins before LTD4 addition by Fura2-AM assay; assay type: functional, cell-based
T2 sequence (Q9NS75 whole entry): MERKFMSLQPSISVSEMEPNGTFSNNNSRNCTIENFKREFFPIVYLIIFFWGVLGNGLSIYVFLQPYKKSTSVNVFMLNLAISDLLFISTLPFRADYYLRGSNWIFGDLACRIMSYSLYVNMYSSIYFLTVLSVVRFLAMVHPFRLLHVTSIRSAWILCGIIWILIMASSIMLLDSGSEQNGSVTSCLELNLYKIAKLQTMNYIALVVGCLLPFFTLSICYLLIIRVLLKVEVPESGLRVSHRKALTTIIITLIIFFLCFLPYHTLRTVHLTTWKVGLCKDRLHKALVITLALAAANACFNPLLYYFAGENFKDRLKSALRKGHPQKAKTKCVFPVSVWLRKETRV

[3] = Apparent permeability across apical to basolateral or basolateral to apical side in human Caco2 cells at 1 uM after 2 hrs by LC/MS/MS analysis; assay type: ADME, cell-based; settings: Caco-2
[4] = Apparent permeability of the compound at pH 6.2 by PAMPA; assay type: physicochemical
[5] = Apparent permeability of the compound at pH 7.4 by PAMPA; assay type: physicochemical
[6] = Cmax in rat at 30 mg/kg, po; assay type: ADME, organism-based; design: dose 30 mg/kg, route oral; settings: in vivo
[7] = Half life in rat at 30 mg/kg, po; assay type: ADME, organism-based; design: dose 30 mg/kg, route oral; settings: in vivo
[8] = AUC in rat at 30 mg/kg, po; assay type: ADME, organism-based; design: dose 30 mg/kg, route oral; settings: plasma
[9] = Oral bioavailability in rat at 30 mg/kg; assay type: ADME, organism-based; settings: in vivo
[10] = Clearance in rat at 1 mg/kg, iv; assay type: ADME, organism-based; design: dose 1 mg/kg, route intravenous; settings: in vivo
[11] = Half life in rat at 1 mg/kg, iv; assay type: ADME, organism-based; design: dose 1 mg/kg, route intravenous; settings: in vivo
[12] = AUCinf in rat at 1 mg/kg, iv; assay type: ADME, organism-based; design: dose 1 mg/kg, route intravenous, time infinity; settings: plasma
[13] = Volume of distribution at steady state in rat at 1 mg/kg, iv; assay type: ADME, organism-based; design: dose 1 mg/kg, route intravenous; settings: in vivo, read-out: Vdss
[14] = Cmax in rat at 10 mg/kg, po; assay type: ADME, organism-based; design: dose 10 mg/kg, route oral; settings: in vivo
[15] = Half life in rat at 10 mg/kg, po; assay type: ADME, organism-based; design: dose 10 mg/kg, route oral; settings: in vivo
[16] = AUC in rat at 10 mg/kg, po; assay type: ADME, organism-based; design: dose 10 mg/kg, route oral; settings: plasma
[17] = Oral bioavailability in rat at 10 mg/kg; assay type: ADME, organism-based; settings: in vivo
Cavia porcellus [18] = experiment: In vivo inhibition of CysLT1 receptor in po dosed guinea pig assessed as reduction in LTD4-induced bronchoconstriction; assay type: functional, organism-based
Cavia porcellus [19] = experiment: In vivo inhibition of CysLT1 receptor in guinea pig assessed as reduction in LTD4-induced bronchoconstriction at 3 mg/kg, po relative to vehicle treated control; assay type: functional

pIC50 [1] | pIC50 [2] | Papp at 2 h, 1 µM [3] [×10⁻⁶ cm/s] | Papp [4] [×10⁻⁶ cm/s] | Papp [5] [×10⁻⁶ cm/s] | Cmax [6] [ng/mL] | half-life [7] [h] | AUC [8] [ng·h/mL] | bioavailability [9] [%] | clearance [10] [mL/min/kg] | half-life [11] [h] | AUC(0-inf) [12] [ng·h/mL] | Vd [13] [L/kg] | Cmax [14] [ng/mL] | half-life [15] [h] | AUC [16] [ng·h/mL] | bioavailability [17] [%] | SMILES | inhibition (Cavia porcellus [18]) | inhibition in vivo at 3 mg/kg (Cavia porcellus [19]) [%]
7.62 | 9.51 | 7.8 | 7.8 | < 0.1 | – | – | – | – | – | – | – | – | – | – | – | – | O=C(O)CCCN1CC(C(=O)O)Oc2c(/C=C/c3ccc(OCCCCOc4ccccc4)cc3)cccc21 (stereo unspecified) | – | –
9.23 | 8.47 | 0.16 | – | – | – | – | – | – | – | – | – | – | – | – | – | – | O=C(O)CCCN1CC(c2nnn[nH]2)Oc2c(/C=C/c3ccc(OCCCCc4ccccc4)cc3)cccc21 (stereo unspecified) | – | –
5.72 | 5.37 | 0.17 | – | – | – | – | – | – | – | – | – | – | – | – | – | – | O=C(O)CCCN1CCOc2c(NC(=O)c3ccc(OCCCCc4ccccc4)cc3)cccc21 | – | –
7.24 | – | 0.74 | – | – | 5600 | 7.4 | 48000 | 20 | 2.2 | 6 | 7900 | 0.18 | – | – | – | – | O=C(O)CCCN1CC(C(=O)O)Oc2c(OCc3ccc(OCCCCc4ccccc4)cc3)cccc21 (stereo unspecified) | – | –
6.60 | 6.43 | 13 | 13 | 12 | – | – | – | – | – | – | – | – | – | – | – | – | O=C(O)CCCn1cc(C(=O)O)c(=O)c2c(/C=C/c3ccc(OCCCCOc4ccccc4)cc3)cccc21 | – | –
6.31 | 7.12 | 11 | 11 | < 0.1 | – | – | – | – | – | – | – | – | – | – | – | – | O=C(O)CCCOc1nc2cccc(/C=C/c3ccc(OCCCCOc4ccccc4)cc3)c2nc1C(=O)O | – | –
7.15 | 8.24 | 1.3 | 1.1 | 0.1 | 21000 | 3.6 | 203000 | 29 | 0.77 | 5.6 | 24000 | 0.365 | – | – | – | – | O=C(O)CCCN1CC(C(=O)O)Oc2c(/C=C/c3ccc(OCCCCc4ccccc4)cc3)cccc21 (stereo unspecified) | – | –
– | – | – | – | – | – | – | – | – | 0.65 | 7.1 | 28000 | 0.208 | 33000 | 4.7 | 324000 | 100 | O=C(O)CCCn1cc(CC(=O)O)c2c(/C=C/c3ccc(OCCCCOc4ccccc4)cc3)cccc21 | Dose-dependent effect | 45

The next lines start with the compound.

SMILES | pIC50 [1] | pIC50 [2] | Papp at 2 h, 1 µM [3] [×10⁻⁶ cm/s] | Papp [4] [×10⁻⁶ cm/s] | Papp [5] [×10⁻⁶ cm/s] | Cmax [6] [ng/mL] | half-life [7] [h] | AUC [8] [ng·h/mL] | bioavailability [9] [%] | clearance [10] [mL/min/kg] | half-life [11] [h] | AUC(0-inf) [12] [ng·h/mL] | Vd [13] [L/kg] | Cmax [14] [ng/mL] | half-life [15] [h] | AUC [16] [ng·h/mL] | bioavailability [17] [%] | inhibition (Cavia porcellus [18]) | inhibition in vivo at 3 mg/kg (Cavia porcellus [19]) [%]
O=C(O)CCCN1CC(c2nnn[nH]2)Oc2c(NC(=O)c3ccc(OCCCCc4ccccc4)cc3)cccc21 (stereo unspecified) | 9.10 | 9.31 | 0.11 | – | – | 40 | 11 | 700 | 1 | 7.8 | 4 | 2100 | 0.342 | – | – | – | – | – | –
O=C(O)CCCN1CC(C(=O)NS(=O)(=O)c2ccccc2)Oc2c(NC(=O)c3ccc(OCCCCc4ccccc4)cc3)cccc21 (stereo unspecified) | 7.15 | 8.24 | 0.06 | – | – | – | – | – | – | – | – | – | – | – | – | – | – | – | –
O=C(O)CCCN1CC(C(=O)O)Oc2c(CCc3ccc(OCCCCc4ccccc4)cc3)cccc21 (stereo unspecified) | 7.09 | 7.80 | 2.8 | – | – | 12000 | 2.5 | 88000 | 79 | 4.8 | 6 | 3700 | 1.46 | – | – | – | – | – | –
O=C(O)CCCN1CC(C(=O)O)Oc2c(NC(=O)c3ccc(OCCCCc4ccccc4)cc3)cccc21 (stereo unspecified) | – | – | 0.18 | – | – | 210 | 3.2 | – | – | – | – | 3500 | 0.104 | – | – | – | – | – | –
CS(=O)(=O)NC(=O)C1CN(CCCC(=O)O)c2cccc(NC(=O)c3ccc(OCCCCc4ccccc4)cc3)c2O1 (stereo unspecified) | 7.66 | 7.80 | 0.06 | – | – | – | – | – | – | – | – | – | – | – | – | – | – | – | –
O=C(O)CCCN1CC(c2nnn[nH]2)Oc2c(CCc3ccc(OCCCCc4ccccc4)cc3)cccc21 (stereo unspecified) | 7.46 | 7.82 | 0.52 | – | – | – | – | – | – | 15 | 3.8 | 1200 | 0.999 | 400 | 2.9 | 1800 | 15 | – | –
O=C(O)CCCN1CC(CO)Oc2c(NC(=O)c3ccc(OCCCCc4ccccc4)cc3)cccc21 (stereo unspecified) | 6.13 | 6.39 | 0.17 | – | – | – | – | – | – | – | – | – | – | – | – | – | – | – | –
